Experiments:
[1] = Evaluation Test 2: Low-temperature storage stability (dissolution stability) of ethyl lactate solutions; type: physicochemical; parameters: key to Solution storage test 5° C. / Solution storage test −5° C.: ∘: Completely dissolved, and neither precipitation of crystals nor separation of oily components can be visually observed.; x: Precipitation of crystals or separation of oily components can be visually observed; settings: for Solution storage test −5° C. / Solution storage test 5° C.: ethyl lactate solution; for Solution storage test −5° C.: freezer −5° C.; for Solution storage test −5° C. / Solution storage test 5° C. / Crystallization on storage, in words: 30 days; for Solution storage test 5° C.: refrigerator 5° C.; for Crystallization on storage, in words: ethyl lactate solutions, both at 5° C. and −5° C.
Method: <Evaluation Test 2: Low-Temperature Storage Stability (Dissolution Stability)>
In a 50 ml screw tube, 4.29 g of compound (C1), the inventive compound, and 5.71 g of ethyl lactate were placed and mixed, and the screw tube was put in a water bath set at 30° C. and stirred by shaking it by hand. Complete dissolution was visually observed, thus preparing an ethyl lactate solution with a compound (C1) concentration of 42.9 wt %.
In the same manner as for compound (C1), an ethyl lactate solution with a compound (C2) concentration of 40 wt %, an ethyl lactate solution with a compound (C2) concentration of 50 wt %, and an ethyl lactate solution with a compound (y) concentration of 40 wt % were prepared.
These solutions were subjected to solution storage tests in a refrigerator (5° C.) and a freezer (−5° C.) for 30 days.
∘: Completely dissolved, and neither precipitation of crystals nor separation of oily components can be visually observed.
x: Precipitation of crystals or separation of oily components can be visually observed.

[2] = Evaluation Test 1: Solubility at 30° C. in ethyl lactate; type: physicochemical; settings: for Solubility (g/100 g, 30° C.): in ethyl lactate, stirred 3 hours, HPLC quantification
Method: (4) Conditions of solubility measurement and analysis of comparative compounds (x) and (y)
<Evaluation Test 1: Solubility at 30° C.>
For compound (C1) and compound (C2) obtained in Examples and the following two compounds having six functional groups likewise and reported as crosslinking agents, the solubility at 30° C. in ethyl lactate widely used as a resist solvent was measured. The following compounds are referred to as “comparative compound (x)” and “comparative compound (y)”.
A cross-shaped stirrer and 10 g of ethyl lactate were added to a 100 ml test tube, and after 10 g of comparative compound (x) (or (y)) was added, a siphon was attached. Under nitrogen purge, the test tube was set in a pre-conditioned water bath at 30° C. and stirred with the stirrer for 3 hours. After the stirring for 3 hours, the internal solution was sampled with a pipette, and solids were filtered off from the sampled solution through a syringe filter to put a filtrate in a 50 ml measuring flask. This was diluted to the 50 ml mark with methanol for HPLC and analyzed with a high-performance liquid chromatography analyzer. From the results obtained, comparative compound (x) (or (y)) in the filtrate was quantified using the peak area of comparative compound (x) (or (y)), and the solubility (=quantitative value (mg) of comparative compound (x) or (y)/(weight (mg) of filtrate put in 50 ml measuring flask through syringe filter-quantitative value (mg) of comparative compound (x) or (y)) was calculated.
Method of constructing calibration curve: comparative compound (x) (or (y)) used in the test was analyzed by HPLC, and an approximate straight line obtained by plotting the peak area of comparative compound (x) (or (y) on the horizontal axis and the concentration (mg/50 ml) of comparative compound (x) (or (y)) on the vertical axis with “intercept=0” was used as a calibration curve of comparative compound (x) (or (y)).

Row | Solution storage test −5° C. ([1]; concentration 40.0 wt %) | Solution storage test 5° C. ([1]; concentration 40.0 wt %) | Solution storage test −5° C. ([1]; concentration 50.0 wt %) | Solution storage test 5° C. ([1]; concentration 50.0 wt %) | Crystallization on storage, in words [1] | Solubility in ethyl lactate relative to comparative compound (x) ([2]; ethyl lactate) | Solubility in ethyl lactate relative to comparative compound (y) ([2]; ethyl lactate) | Solubility (g/100 g, 30° C.) [2] | Solubility (g/100 g, 30° C.) ([2]; listed as compound (C2)) | Re-dissolution of precipitated crystals ([1]; test sample with precipitated crystals left at room temperature (22° C.) for one day) | Compound
1 | ∘ | ∘ | ∘ | ∘ | did not crystallize at all | more than twice higher | more soluble | > 100 g/100 g | more than 100.0 g/100 g |  | COCc1cc(CCC(C)(c2cc(COC)c(O)c(C3CCCCC3)c2)c2cc(COC)c(O)c(C3CCCCC3)c2)cc(COC)c1O [Compound (C2)]
2 | x | x |  |  | experienced crystal precipitation |  |  | 84.0 g/100 g |  | did not dissolve again | COCc1cc(C(C)(c2cc(COC)c(O)c(COC)c2)c2cc(COC)c(O)c(COC)c2)cc(COC)c1O [(y), reference compound]
3 |  |  |  |  |  |  |  | 38.7 g/100 g |  |  | COCc1cc(C(C)(C)c2ccc(C(C)(c3cc(COC)c(O)c(COC)c3)c3cc(COC)c(O)c(COC)c3)cc2)cc(COC)c1O [Comparative compound (x), reference compound]
